These results are taken from patent publication US20080220416A1, “Compositions for Inhibiting Cell Growth and Inducing Apoptosis in Cancer Cells and Methods of Use Thereof” (THE BOARD OF TRUSTEES OF THE UNIVERSITY OF ILLINOI, priority 2004, published 2008).

Square brackets hold non-standard residues; d marks the D form. Peptide text beside a SMILES is read from it. * marks the point of attachment. Nle = CCCC[C@H](N)C(=O)O; Cbz = O=C(OCc1ccccc1)*

The subject of assay [1] is MDA-MB-231 breast cancer cells. As to the kind of experiment: z-Leu-Leu-Nle-CHO plus Paclitaxel, growth inhibition of MDA-MB-231 cells. It is filed as cell-based, human. As to conditions: 0-0.8 μM with Paclitaxel, 48 h. Here is the method:
Three different types of breast cancer cells were contacted with varying concentrations of z-Leu-Leu-Nle-CHO (0-0.8 μM) and the mitotic poison Paclitaxel (0.01-1 μM). MDA-MB231 cells were obtained from ATCC (Rockville, Md.). T47D:C42 and T47D:A18 cells were a kind gift of Debra Tonetti (University of Illinois-Chicago). MDA-MB231 cells were cultured in DMEM medium with 10% FBS. T47D:C42 and T47D:A18 cells were propagated in RPMI 1640 with 10% FBS, 100 μM non-essential amino acid and 6 ng/ml insulin. Gamma-secretase inhibitor z-Leu-Leu-Nle-CHO (Calbiochem 565750) was dissolved in DMSO, aliquoted and stored at −80° C. Paclitaxel (Sigma, St. Louis Mo.) was dissolved in DMSO, aliquoted and stored at −80° C.
To determine whether z-Leu-Leu-Nle-CHO treatment potentiates the effect of Paclitaxel on human breast cancer cells, MDA-MB231, T47D:C42 and T47D:A18 cells were treated for 48 h with 0-0.8 μM z-Leu-Leu-Nle-CHO and various concentrations of Paclitaxel (0.008-1 μM) Following the z-Leu-Leu-Nle-CHO and Paclitaxel treatment, the cells were tested for growth inhibition as described above in Example 13.

For assay [2], the system named is C8161 melanoma tumor xenograft. As to the kind of experiment: C8161 melanoma tumor xenograft in Nude mice, z-Leu-Leu-Nle-CHO injections. It counts as in vivo. Here is the method: Assessment of tumor formation in Nude mice was performed by adapting the method described in Hendrix, M. J. et al., 1997, Am J Pathol 150:483-495. Tumors were established in Nude mice as follows. Briefly, 1×10^6 aggressive melanoma cells (C8161) (ATCC, Rockville, Md.) were injected subcutaneously in Nude mice on day 0, and the tumors were allowed to grow for 1 week. Beginning on day 8, mice received injections (100 μl) of DMSO carrier only (control group) or z-Leu-Leu-Nle-CHO (1 mM in DMSO) (Calbiochem, LaJolla, Calif.) (experimental group) every other day for 1 week. Tumor sizes (mm^2) were determined on day 7 prior to injections with or z-Leu-Leu-Nle-CHO or DMSO, and on day 14. Average tumor size for both groups was normalized, and size of tumors at 2 weeks was averaged. Detection of apoptosis in tissue sections was performed using TUNEL staining as described in Wrone-Smith et al, 1997, Am J Pathol. 151:1321-9.

The next assay deals with NOXA. As to the kind of experiment: Western blot of pro-survival and pro-apoptotic proteins in melanoma cells. It is filed as cell-based, human. As to conditions: 10 μM. Here is the method:
To assess the effect of z-Leu-Leu-Nle-CHO on pro-apoptotic proteins, RJ002L pulmonary metastases melanoma cells were grown in RPMI supplemented with 10% FBS. Highly proliferating cells (i.e., cells that had reached approximately 30% confluency) were exposed to z-Leu-Leu-Nle-CHO by replenishing the culture media with media containing z-Leu-Leu-Nle-CHO (10 μM) (experimental group) or media without z-Leu-Leu-Nle-CHO (control group) and the cells were incubated for a specified period of time prior to harvesting the cells for further analysis.
Western blot analyses following z-Leu-Leu-Nle-CHO and control treatment of RJ002L melanoma cells were performed to determine the effect of z-Leu-Leu-Nle-CHO on pro-survival and pro-apoptotic proteins. Whole cell extracts were prepared and analyzed as described by Denning, M. F. et al., 1998, J Biol Chem 273: 29995-30002, 1998. The enriched mitochondria pellet and mitochondria-free cytosol of melanoma cells were prepared with the APO ALERT cell fraction kit (Clontech Laboratories, Inc. Palo Alto, Calif.) according to the manufacturer's instructions. For Western blot analysis, equal amounts of protein extracted from each sample (20-30 μg) were loaded into pre-cast 7% NuPAGE Tris-acetate gels or 4-12% NuPAGE Bis-tris gels (Invitrogen). Proteins were separated by SDS-PAGE and transferred to polyvinylidene difluoride membranes (Bio-Rad, Hercules, Calif.) using Invitrogen's buffering system. The indicated primary antibodies were incubated for indicated period of time, washed, and visualized by incubation with horseradish peroxidase-conjugated secondary antibodies and chemiluminescent reagents (Roche Diagnostics Corporation, Indianapolis, Ind.). Antibodies used were as follows: From Santa Cruz Biotechnology: Bcl-2 (SC-7382), BCl-xL (SC-634), Mcl-1 (SC-819), survivin (SC-10811), Bax (SC-493), Bak (SC-832), Bim (SC-11425), PUMA (SC-19187), p53 (SC-126), and GADD45 (SC-796); From Cell Signaling: Bid (#2002), and cleaved caspase 9 (9501); NOXA (OP180—Oncogene Research Products), Apaf-1 (559683-BD Bioscience), Smac/Diablo (IMG-248-Imgenex), cytochrome C (part of kit—Apo Alert™ cell fraction kit—Clontech Laboratories, Inc.—Palo Alto, Calif.), PARP (Pharmingen, San Diego, Calif.) and β-actin (Sigma Chemical Co., St. Louis, Mo.). Secondary antibodies anti-goat, anti-mouse, anti-rabbit and anti-rat (IgG-HRP) were purchased from Vector Laboratories (Burlingame, Calif.), Santa Cruz Biotechnology and Amersham Biosciences.
To determine if p53 status influences induction of NOXA, NOXA induction in z-Leu-Leu-Nle-CHO-treated melanoma cell lines (10 μM) containing p53 mutations (i.e. C8161, SK-MeI-28, MUM2B) were examined using Western blot analysis as described above and compared to that of Western blot results from z-Leu-Leu-Nle-CHO-treated melanoma cell lines (10 μM) having wild-type p53 (RJ002L, SK-MeI-100). […] In contrast, C8161, which carries a R196Stop mutation in only one allele, has p53 expression similar to that observed in wild-type cell lines. […] NOXA induction occurred earlier in SK-MeI-100 cells than in the other tested cell lines (FIG. 2C). Apaf-1 levels were not increased in response to z-Leu-Leu-Nle-CHO (data not shown).

Turning to `CCCC[C@@H](C=O)NC(=O)[C@H](CC(C)C)NC(=O)[C@H](CC(C)C)NC(=O)OCc1ccccc1` [z-Leu-Leu-Nle-CHO, N-benzyloxycarbonyl-leucyl-leucyl-norleucinal] (Cbz-Leu-Leu-[Nle]-aldehyde), the “effect on Paclitaxel cell growth inhibition” value in assay [1] is recorded as “moderately potentiated the effects of Paclitaxel on cell growth inhibition”. In addition, in assay [2] (1 mM in DMSO, 100 μl every other day for 1 week, compared to DMSO, p=0.046, n=11), the average tumor size entry is “significantly reduced tumor size”. Also, the “apoptosis in tumor by immunofluorescent TUNEL assay” value in assay [2] (1 week of treatment, 1 mM, versus DMSO carrier) was “High levels of apoptosis”. Besides, in the assay on NOXA (RJ002L), the “induction of pro-apoptotic proteins” value is “induced expression of Bak, Bim, and NOXA”; the “time course of NOXA induction” value is “detectable as early as 1 hr and was massive by 6-18 hrs”. For the same molecule, in the assay on NOXA (all tested melanoma cell lines, regardless of p53 mutation status), the NOXA induction entry is recorded as “induced NOXA in all tested melanoma cell lines”.
